{"source": "patent US20220228985A1", "about": "“FLUORESCENT COMPOSITION FOR DETECTING BIOLOGICAL MATERIAL” (Bioacts Corporation, priority 2021, published 2022)", "tested_on": "red blood cells", "assay": "Microscopic analysis of hemolytic efficacy of surfactant compound", "assay_type": "cell-based", "details": "E-check (low concentration), microscope X200 DIC, control PBS, FIG. 4", "method": "Microscopic analysis was performed to visually confirm the blood hemolysis effect of the blood analysis reagent prepared with the compound of Chemical Formula 3 and the compound of Chemical Formula 4 as the surfactant compound. The blood analysis reagent prepared in E-check (low concentration), a quality control reagent, was treated and microscopic analysis was performed. The analysis was performed with a Nikon ECLIPSE microscope, and measured under X200 DIC filter conditions. As a control, a sample obtained by treating PBS in an E-check reagent was used."}
{"smiles": "CCCCCCCCn1cc(COCCOCCOCCOCCOCCOCCOCCOCCOCCOCCO)nn1", "note": "[Compound 3b]", "values": [{"measurement": "hemolysis of red blood cells", "result": "most cleanly hemolyzed"}]}
{"smiles": "CCCCCCCCCCCCCCn1cc(COCCOCCOCCOCCOCCOCCOCCOCCOCCOCCOCCOCCOCCOCCOCCOCCOCCOCCOCCOCCOCCO)nn1", "note": "[Chemical Formula 4]", "values": [{"measurement": "hemolysis of red blood cells", "result": "excellent efficacy in hemolysis of red blood cells"}]}
